{"source": "patent US11484601B2", "about": "“Targeting M2-like tumor-associated macrophages by using melittin-based proapoptotic peptide” (TWI[…]., priority 2018, dated 2022)", "tested_on": "M2 macrophage (RAW264.7 differentiated into M2-type with IL-4 and IL-13)", "experiment": "MTS cell viability assay, M2-type macrophage", "assay_type": "cell-based, mouse", "conditions": "compared with MEL and DM1 alone", "method": "More specifically, dKLA (SEQ ID NO: 2), MEL (SEQ ID NO: 1), MEL-dKLA (SEQ ID NO: 3; […]-d[KLAKLAKKLAKLAK]) peptide and 5-carboxyl tetramethylrhodamine (TMR)-conjugated dKLA, MEL and MEL-KLA peptides were purchased from GenScript (Piscataway, N.J., USA). TMR was conjugated with the amino group located at the N-terminal of the peptide. Regarding all of the peptides, 95% or greater purified peptides were used. Murine Lewis lung carcinoma (LLC) cells and macrophage RAW264.7 of mice were cultured in Dulbecco's modified Eagle's medium (DMEM; Welgene, Korea) to which 10% heat-inactivated fetal bovine serum (Welgene), 100 U/mL penicillin and 100 μg/mL streptomycin (Invitrogen, CA, USA) were added. Macrophage (RAW264.7) differentiated into M2-type was treated with IL-4 and IL-13 in the medium for 24 hours. After the treatment, the cells were cultured in a state in which serum was insufficient for 48 hours. M1-type macrophage was treated with 1 ng/mL of LPS for 24 hours to induce differentiation.\nThe cell viability test was measured via the MTS assay. RAW264.7 macrophage was differentiated into M1-type or M2-type macrophage which was inoculated onto a 96-well plate at 3×10^4 cells/well. The next day, the macrophage was treated with each of PBS, dKLA, MEL and MEL-dKLA. After 24 hours, the culture solution was replaced and the cell was treated with 20 μL MTS reaction solution (Promega, WI, USA), followed by reaction at 37° C. Then, […] was measured at 490 nm to measure cell viability.\nThe MEL-DM1 anticancer drug conjugation method and cell test method are as described above."}
{"substance": "MEL-DM1: melittin with N-terminal maleimide covalently bound to the free-sulfhydryl group of maytansine DM1", "values": [{"measurement": "M2 selective cell killing effect", "value": "higher M2 selective cell killing effect"}]}
